Laboratory results published in ChEMBL document CHEMBL1151984, “Dietary derived sesquiterpenes from Phyllodesmium lizardensis” (J Nat Prod, 2009).
Calls of active or inactive are those of the source.

Key:
Format in all cases: functional, organism-based
Priestia megaterium = assay: Antibacterial activity against Bacillus megaterium at 50 ug/disk
Microbotryum violaceum = assay: […] activity against Microbotryum violaceum at 50 ug/disk
Escherichia coli = assay: Antibacterial activity against Escherichia coli at 50 ug/disk
Mycotypha microspora = assay: Antifungal activity against Mycotypha microspora at 50 ug/disk
Aspergillus ruber = assay: Antifungal activity against Eurotium rubrum at 50 ug/disk

Measured: Activity

CC(=O)O[C@@H]1C[C@H]2C(C)=CC[C@H](C(C)C)[C@H]2C=C1C
inactive: all assays above

CC1=C[C@@H]2[C@@H](C(C)C)CC=C(C)[C@@H]2C[C@H]1O
inactive: all assays above
